A word on the IC50: it is the point on the concentration scale where inhibition reaches its midpoint. Higher therefore signals weaker potency in that assay. As a reminder, the Ki is the dissociation constant of the complex between target and ligand, obtained from inhibition or displacement. Low values mean higher affinity, high ones lower affinity.

Among the data in ChEMBL document CHEMBL1126370, “Neuropeptide Y (NPY) functional group mimetics: design, synthesis, and characterization as NPY receptor antagonists” (Bioorg Med Chem Lett, 1992) are IC50, Max displacement and Ki values, retold here.

Test [1] in a line: The receptor binding activity was evaluated as the displacement of specifically bound [3H]-NPY from male Sprague-Dawley rat brain membrane homogenates. The class given is tissue-based.
A short description of test [2]: Percent maximum displacement of the [3H]NPY by the compound in the rat brain membrane was evaluated. It is filed as cell membranes.
Test [3] is filed under the species Rattus norvegicus. The test is described as follows: Inhibitory concentration was evaluated against the vasoconstriction induced by NPY in the rat femoral artery ring. It is filed as functional.
Test [4] can be described thus: Inhibition constant to displace [3H]-NPY from rat brain membrane after treatment with 500 evaluated. The class given is tissue-based.
Test [5] can be described thus: The receptor binding activity as the displacement of specifically bound [3H]-NPY from male Sprague-Dawley rat brain membrane homogenates. The class given is tissue-based.

For the compound `N/C(=N\CCNC(=O)C(N)Cc1ccc(OCc2c(Cl)cccc2Cl)cc1)NCCSSCCN/C(N)=N/CCNC(=O)C(N)Cc1ccc(OCc2c(Cl)cccc2Cl)cc1` (stereo not given), the IC50 is 18.5 µM in test [1] and 0.414 µM in test [3]. Further, the Max displacement in test [2] stood at 63%.

On to `N/C(=N\CCNC(=O)C(N)Cc1ccc(OCc2c(Cl)cccc2Cl)cc1)NCCCCCCN/C(N)=N/CCNC(=O)C(N)Cc1ccc(OCc2c(Cl)cccc2Cl)cc1` (stereo not given), for which the IC50 in test [1] was determined as 45.4 µM; in test [3], 2.86 µM. Further, the Max displacement in test [2] amounted to 100%. In test [4], the inhibitory constant (Ki) was determined as 35.5 µM.

`COc1ccccc1CNCCCCCCNCCSSCCNCCCCCCNCc1ccccc1OC` [BENEXTRAMINE]: the IC50 in test [5] came out at 56 µM; in test [3], 0.0431 µM. In test [2], this compound registered a Max displacement of 61%.
